US5770691A, “Discriminatory substrates for MMP hydrolysis” (Regents of the University of Minnesota, priority 1995, dated 1998)
Where a SMILES comes first, the peptide text is derived from it. [ ]: non-standard residue; d: D form. The star is where a group is joined. Dnp = O=[N+]([O-])c1ccc(*)c([N+](=O)[O-])c1; Mca = COc1ccc2c(CC(=O)*)cc(=O)oc2c1; Nva = CCC[C@H](N)C(=O)O

Tests used:
MMP-3 [1] = target: T1, MMP-3 (Homo sapiens, UniProt P08254); test: Fluorometric hydrolysis of synthetic Mca/Lys(Dnp) substrates by MMP-3; type: biochemical; design: made in house; host or cells: native secreted protein purified from culture medium of human rheumatoid synovial cells; details: Edman degradation analysis after 36-72 hour treatment of substrate with MMP
Target sequence in this assay (P08254 100-477): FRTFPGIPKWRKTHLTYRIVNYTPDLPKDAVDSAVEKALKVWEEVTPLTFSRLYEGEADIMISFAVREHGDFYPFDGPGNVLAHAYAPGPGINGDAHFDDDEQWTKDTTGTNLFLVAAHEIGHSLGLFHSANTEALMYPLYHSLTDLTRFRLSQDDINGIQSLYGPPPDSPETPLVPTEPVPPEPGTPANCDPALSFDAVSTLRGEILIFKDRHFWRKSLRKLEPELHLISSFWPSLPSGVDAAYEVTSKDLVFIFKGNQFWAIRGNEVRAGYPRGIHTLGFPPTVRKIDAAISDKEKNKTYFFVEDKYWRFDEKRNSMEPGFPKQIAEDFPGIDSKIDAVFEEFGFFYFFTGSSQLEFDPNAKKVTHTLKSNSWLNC

MMP-1 [2] = target: T2, MMP-1 (Homo sapiens, UniProt P03956); test: Fluorometric hydrolysis of synthetic Mca/Lys(Dnp) substrates by MMP-1; type: biochemical; design: made in house; host or cells: native secreted protein purified from culture medium of human rheumatoid synovial cells
T2 sequence (P03956 100-469): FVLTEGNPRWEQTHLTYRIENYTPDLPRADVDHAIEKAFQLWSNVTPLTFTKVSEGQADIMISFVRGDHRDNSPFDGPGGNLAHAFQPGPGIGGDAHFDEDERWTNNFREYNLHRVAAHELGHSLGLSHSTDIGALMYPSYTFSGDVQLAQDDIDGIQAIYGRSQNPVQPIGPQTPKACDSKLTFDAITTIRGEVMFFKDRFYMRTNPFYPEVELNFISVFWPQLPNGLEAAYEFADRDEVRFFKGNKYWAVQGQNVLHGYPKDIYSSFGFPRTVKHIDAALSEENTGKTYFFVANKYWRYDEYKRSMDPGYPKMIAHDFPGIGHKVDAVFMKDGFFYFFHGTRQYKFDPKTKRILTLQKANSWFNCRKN
Text: (§1) All MMPs were purified in zymogen form. ProMMP-1 (Suzuki et al., Biochem., 29, 10261 (1990)), proMMP-2 (Okada et al., Eur. J. Biochem., 194, 721 (1990)), and proMMP-3 (Ito et al., Arch. Biochem. Biophys., 267, 211 (1988)) were purified from the culture medium of human rheumatoid synovial cells stimulated with rabbit macrophage-conditioned medium. ProMMP-9 was purified from the culture medium of HT-1080 cells as described in Morodomi et al., Biochem. J., 285, 603 (1992). ProMMP-2 and proMMP-9 were activated by reacting with 1 mM 4-aminophenylmercuric acetate at 37° C. for 45 minutes and 32 hours, respectively. ProMMP-1 was activated by reacting with 1 mM 4-aminophenylmercuric acetate and an equimolar amount of MMP-3 at 37° C. for 6 hours. After activation, MMP-3 was completely removed from MMP-1 by affinity chromatography using an anti-MMP-3 IgG Affi-Gel 10 column. The resin, Affi-Gel 10 (Biorad, Emoryville, Calif.), was coupled to anti-MMP-3 IgG (Okada et al., Annals of Rheumat. Dis., 48, 645 (1989)) per the manufacturer's protocol. Pro-MMP-3 was activated by reacting with 5 μg/mL chymotrypsin at 37° C. for 2 hours. Chymotrypsin was inactivated with 2 mM diisopropylfluorophosphate. The amounts of active MMP-1, MMP-2, and MMP-3 were determined by titration with tissue inhibitor of metalloproteinase-1(TIMP1) over a concentration range of 0.1-3 μg/mL, while the amount of active MMP-9 was determined by titration with TIMP-2 (0.1-3 μg/mL). TIMP-1 was isolated from the medium of HT-1080 cells as described in Morodomi et al., Biochem J., 285, 603 (1992).
(§2) Substrates were prepared as 10 mM stock solutions in dimethylsulfoxide (DMSO). Fluorescent assays were performed at λex =325 nm and λem =393 nm, which should encounter no interference from Trp residues, using a Hitachi fluorescence spectrophotometer F-3010. Initial total hydrolysis assays were run at a substrate concentration of […] to avoid filtering effects. The change in fluorescence at this concentration was 110 based on total hydrolysis of 1 μM substrate. A typical assay was carried out by incubating 100 μL of various concentrations of a substrate with 10 μL of an enzyme solution (2-20 nM) in 50 mM Tris-HCl, pH 7.5, 0.15M NaCl, 10 mM CaCl2, 0.05% Brij 35, 0.02% NaN3. The reaction was stopped by addition of 900 μl of 3% (v/v) glacial acetic acid. MMP-3 activity at pH 6.0 was measured in 50 mM sodium acetate buffer, pH 6.0, instead of Tris-HCl buffer. The amount of substrate hydrolysis was calculated based on the fluorescence values of the Mca-Arg-Pro-Lys-Pro-Gln standard solution after substraction of the reaction blank value (stopping solution added before the enzyme). Individual kinetic parameters (kcat and KM) were determined over a substrate concentration range of 2.5-75 μM and calculated by double reciprocal plots.

MMP-9 [3] = target: T3, MMP-9 (Homo sapiens, UniProt P14780); test: Fluorometric hydrolysis of synthetic Mca/Lys(Dnp) substrates by MMP-9; type: biochemical; design: made in house; host or cells: native secreted protein purified from culture medium of HT-1080 cells; details: Edman degradation analysis after 36-72 hour treatment of substrate with MMP
Target sequence in this assay (P14780 107-707 limits assumed): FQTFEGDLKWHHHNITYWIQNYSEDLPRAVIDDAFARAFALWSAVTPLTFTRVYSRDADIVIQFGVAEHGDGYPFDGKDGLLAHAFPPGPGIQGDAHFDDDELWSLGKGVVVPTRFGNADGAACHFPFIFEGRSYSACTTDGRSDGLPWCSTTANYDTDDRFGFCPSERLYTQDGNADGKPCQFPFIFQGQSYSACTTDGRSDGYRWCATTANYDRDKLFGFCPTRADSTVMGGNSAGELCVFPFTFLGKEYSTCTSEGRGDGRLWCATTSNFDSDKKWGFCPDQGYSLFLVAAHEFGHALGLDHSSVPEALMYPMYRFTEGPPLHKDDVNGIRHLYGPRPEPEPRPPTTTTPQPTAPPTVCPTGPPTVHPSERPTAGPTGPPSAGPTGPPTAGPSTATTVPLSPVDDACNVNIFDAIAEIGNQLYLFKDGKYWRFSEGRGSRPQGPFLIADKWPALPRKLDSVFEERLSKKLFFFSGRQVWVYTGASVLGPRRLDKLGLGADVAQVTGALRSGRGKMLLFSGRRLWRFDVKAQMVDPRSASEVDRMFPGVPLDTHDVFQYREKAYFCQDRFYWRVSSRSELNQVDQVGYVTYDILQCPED

Solubility of substrate = type: physicochemical; details: 2.5% DMSO in water; read-out: soluble up to a concentration
MMP-3 [4] = target: T1, MMP-3; test: Fluorometric hydrolysis of synthetic Mca/Lys(Dnp) substrates by MMP-3; type: biochemical; design: made in house; host or cells: native secreted protein purified from culture medium of human rheumatoid synovial cells; details: for kcat /Km: pH 7.5
Text: as §1, §2
Target sequence in this assay (P08254 100-477): as the sequence (P08254 100-477) above

MMP-9 [5] = target: T3, MMP-9; test: Fluorometric hydrolysis of synthetic Mca/Lys(Dnp) substrates by MMP-9; type: biochemical; design: made in house; host or cells: native secreted protein purified from culture medium of HT-1080 cells
Text: as §1, §2
Target sequence in this assay (P14780 107-707 limits assumed): as the sequence (P14780 107-707 limits assumed) above

MMP-2 [6] = target: T4, MMP-2 (Homo sapiens, UniProt P08253); test: Fluorometric hydrolysis of synthetic Mca/Lys(Dnp) substrates by MMP-2; type: biochemical; design: made in house; host or cells: native secreted protein purified from culture medium of human rheumatoid synovial cells
T4 sequence (P08253 110-660): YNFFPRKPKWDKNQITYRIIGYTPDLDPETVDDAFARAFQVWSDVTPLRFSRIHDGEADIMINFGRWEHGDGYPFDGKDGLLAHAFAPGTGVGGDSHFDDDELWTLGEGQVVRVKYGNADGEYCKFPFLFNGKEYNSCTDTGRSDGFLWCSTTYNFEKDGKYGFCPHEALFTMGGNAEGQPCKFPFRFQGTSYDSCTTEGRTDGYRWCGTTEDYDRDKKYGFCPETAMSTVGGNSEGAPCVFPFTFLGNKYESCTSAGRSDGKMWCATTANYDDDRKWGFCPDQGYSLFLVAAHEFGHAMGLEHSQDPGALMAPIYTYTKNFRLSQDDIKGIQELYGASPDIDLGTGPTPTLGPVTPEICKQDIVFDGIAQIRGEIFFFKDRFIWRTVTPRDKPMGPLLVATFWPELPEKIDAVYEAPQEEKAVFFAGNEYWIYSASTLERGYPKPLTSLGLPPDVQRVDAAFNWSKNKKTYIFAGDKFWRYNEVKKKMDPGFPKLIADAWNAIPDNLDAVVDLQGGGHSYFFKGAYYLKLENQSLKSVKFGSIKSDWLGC
Text: as §1, §2

MMP-9 [7] = target: T3, MMP-9; details: background, literature; cited from earlier work
Target sequence in this assay (P14780 94-707, species assumed): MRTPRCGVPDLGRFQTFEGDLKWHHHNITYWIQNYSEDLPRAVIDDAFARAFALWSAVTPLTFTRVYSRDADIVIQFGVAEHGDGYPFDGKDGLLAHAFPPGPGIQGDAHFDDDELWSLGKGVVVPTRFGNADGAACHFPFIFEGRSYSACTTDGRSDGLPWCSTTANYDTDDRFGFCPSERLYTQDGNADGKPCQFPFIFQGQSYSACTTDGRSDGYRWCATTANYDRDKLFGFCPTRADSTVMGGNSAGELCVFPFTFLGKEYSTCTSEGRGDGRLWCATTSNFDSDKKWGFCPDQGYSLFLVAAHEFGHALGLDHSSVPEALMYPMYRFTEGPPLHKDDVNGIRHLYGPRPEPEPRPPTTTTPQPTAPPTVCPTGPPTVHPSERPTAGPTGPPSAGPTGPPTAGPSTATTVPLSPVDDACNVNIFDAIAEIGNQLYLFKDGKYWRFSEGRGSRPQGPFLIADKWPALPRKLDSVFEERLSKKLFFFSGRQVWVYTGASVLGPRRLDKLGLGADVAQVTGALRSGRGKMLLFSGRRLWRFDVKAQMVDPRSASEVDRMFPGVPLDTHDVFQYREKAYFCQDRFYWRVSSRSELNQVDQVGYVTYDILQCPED

MMP-1 [8] = target: T2, MMP-1; details: background, literature; cited from earlier work
MMP-2 [9] = target: T4, MMP-2; details: background, literature; cited from earlier work
MMP-7 = target: T5, MMP-7 (Homo sapiens, UniProt P09237); details: background, literature; cited from earlier work
T5 sequence (P09237 95-267): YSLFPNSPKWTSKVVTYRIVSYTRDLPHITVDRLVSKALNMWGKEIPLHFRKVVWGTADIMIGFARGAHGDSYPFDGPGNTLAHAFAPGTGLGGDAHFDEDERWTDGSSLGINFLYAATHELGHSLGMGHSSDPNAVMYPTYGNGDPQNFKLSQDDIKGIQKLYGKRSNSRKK

MMP-3 [10] = target: T1, MMP-3; details: cited from earlier work; for kcat Km: MMP-3, assay at 37° C.; for hydrolyzed by MMP-3: background, literature
Target sequence in this assay (P08254 100-477, species assumed): as the sequence (P08254 100-477) above

Compound | hydrolyzed by MMP-1 (MMP-1 [8]) | hydrolyzed by MMP-2 (MMP-2 [9]) | hydrolyzed by MMP-7 (MMP-7) | kcat Km (MMP-3 [10]) | hydrolyzed by MMP-3 (MMP-3 [10]) | also measured
CCC[C@H](NC(=O)[C@H](CCC(=O)O)NC(=O)[C@@H](NC(=O)[C@@H]1CCCN1C(=O)[C@H](CCCCN)NC(=O)[C@@H]1CCCN1C(=O)[C@H](CCCNC(=N)N)NC(=O)Cc1cc(=O)oc2cc(OC)ccc12)C(C)C)C(=O)N[C@@H](Cc1c[nH]c2ccccc12)C(=O)N[C@@H](CCCNC(=N)N)C(=O)N[C@@H](CCCCNc1ccc([N+](=O)[O-])cc1[N+](=O)[O-])C(N)=O [NFF-3, Mca-Arg-Pro-Lys-Pro-Val-Glu-Nva-Trp-Arg-Lys(Dnp)-NH2] (Mca-RPKPVE[Nva]WRK(Dnp)-NH2) | – | – | – | – | – | site of hydrolysis by MMP-3 (MMP-3 [1]): Glu--Nva bond; hydrolysis by MMP-1 (MMP-1 [2]): not hydrolyzed; site of hydrolysis by MMP-9 (MMP-9 [3]): multiple sites; solubility (Solubility of substrate): ≥ 250 µM; kcat /Km (MMP-3 [4]; MMP-3, 25° C.): 65,700 S^-1 M^-1; kcat /Km (MMP-3 [4]; MMP-3, 37° C.): 218,000 S^-1 M^-1; hydrolysis by MMP-3 (MMP-3 [4]; comparison of synthetic substrates): most rapidly hydrolyzed fluorogenic MMP-3 substrate yet described; hydrolyzed faster than NFF-2 by MMP-3 (MMP-3 [4]; rate relative to NFF-2): 3.7 times; hydrolysis by MMP-9 (MMP-9 [5]): very slowly hydrolyzed; hydrolysis by MMP-2 (MMP-2 [6]): not hydrolyzed
Dnp-Pro-Cha-Gly-Cys(CH3)-His-Ala-Lys(Nma)-NH2 | hydrolyzed | – | – | – | – | hydrolyzed by MMP-9 (MMP-9 [7]): hydrolyzed
Dnp-Pro-Leu-Gly-Leu-Trp-Ala-D-Arg-NH2 (Dnp-PLGLWA[dR]-NH2; SMILES CC(C)C[C@H](NC(=O)CNC(=O)[C@H](CC(C)C)NC(=O)[C@@H]1CCCN1c1ccc([N+](=O)[O-])cc1[N+](=O)[O-])C(=O)N[C@@H](Cc1c[nH]c2ccccc12)C(=O)N[C@@H](C)C(=O)N[C@H](CCCNC(=N)N)C(N)=O) [literature fluorogenic MMP substrate] | hydrolyzed | hydrolyzed | hydrolyzed | 2,200 S^-1 M^-1 | hydrolyzed | –
Mca--Pro--Leu--Gly"--"Leu--Dpa--Ala--Arg--NH2 | hydrolyzed | hydrolyzed | hydrolyzed | 23,000 S^-1 M^-1 | hydrolyzed | –
